# Values quoted from earlier work in US20240325292A1, “COMPOSITION AND METHODS OF TREATMENT USING TRANSDERMAL SUPPLEMENTATION” (Xygenyx Inc., priority 2023, published 2024).
# Columns and labels:
# [1] = as penetration enhancer
# [2] = test system: wide dynamic range neurons in the ventroposterolateral nucleus of the thalamus; details: in vivo
# [3] = not given; remark: listed apart in the source
# [4] = as compared to α-tocopherol = 1.0
# [5] = test system: rheumatoid arthritis; details: arthritic subjects
# [6] = dietary intake in equal portions
# [7] = test system: markers of inflammation in the blood; details: individuals with metabolic syndrome
# [8] = in vivo
# [9] = 400-500 IU, in combination with 10-20 mg β-carotene and 400-500 mg vitamin C
compound,measurement,setting,value
CC(C)[C@@H]1CC[C@@H](C)C[C@H]1O [Menthol],"increase of transdermal drug uptake, factor",[1],≥ 10
"CCCCCc1cc(O)c2c(c1)OC(C)(C)C1CCC(C)=CC21 (stereo not drawn) [THC, Δ-9-tetrahydrocannabinol]",potency in mediating pain relative to morphine,[2],ten times more powerful than morphine
"CC12CCC(CC1)C(C)(C)O2 [eucalyptol, 1,8-epoxy-p-menthane]","increase of transdermal drug uptake, factor",[1],more than 10
"C/C(=C\CO)CCC[C@H](C)CCC[C@H](C)CCCC(C)C [phytol, Phytol]",solubility in water,,nearly insoluble in water
Cc1c(C)c2c(c(C)c1O)CC[C@@](C)(CCC[C@H](C)CCC[C@H](C)CCCC(C)C)O2 [α-tocopherol],progression of age-related macular degeneration,[3]; [9],dramatically reduce the progression
same,reduction in the development of age-related cataracts,[3]; [9],23%
same,functional health of sperm,[3]; 800-900 IU/day,improve functional health of sperm
same,blood plasma concentration of F2-isoprostane,[3]; 1600-3200 IU/day,significantly lower
same,reduction of risk of coronary disease,[3]; doses up to 400 IU/day,up to 34%
same,reduction of risk of developing neurodegenerative diseases (Alzheimer's Syndrome or dementia),"[3]; doses up to 400 IU/day, controlled trials",≤ 24%
same,relative biological activity,[4],1.0
C=C1CC/C=C(\C)CC[C@@H]2[C@@H]1CC2(C)C [β-caryophyllene],"joint and lymph node swelling, leukocyte number",[5],reduced swelling of joints and lymph nodes as well as the number of circulating and articular leukocytes
Cc1cc(O)c(C)c2c1O[C@](C)(CCC[C@H](C)CCC[C@H](C)CCCC(C)C)CC2 [β-tocopherol],relative biological activity,[4],0.5
Cc1c(O)cc2c(c1C)O[C@](C)(CCC[C@H](C)CCC[C@H](C)CCCC(C)C)CC2 [γ-tocopherol],concentration in vivo relative to α-tocopherol,[6],roughly 10%
same,relative biological activity,[4],0.1
Cc1cc(O)cc2c1O[C@](C)(CCC[C@H](C)CCC[C@H](C)CCCC(C)C)CC2 [δ-tocopherol],markers of inflammation in the blood,[7],reduced markers of inflammation
same,relative biological activity,[4],0.03
HGH: hormone comprising a peptide chain that is synthesized in the pituitary gland,biological half-life,[8],10-20 minutes
